Counter-ions that a name gives are not always drawn.
Assay: In-vitro permeation testing with a Franz Cell Diffusion System
Protocol: In-vitro Permeation testing was performed for the dosage forms in Table 8 with a Franz Cell Diffusion System. The receiving chamber was filled in water solution and stirred with magnetic bar. Fix the PermeaPad® Barrier membrane at the surface. The PermeaPad® Barrier consists of two cellulose membranes and in between there is a Lipid layer Lecithine (S-100). Place the donating chamber onto the receiving chamber and effectively sandwich the membrane. Add 5 mg of the film prepared in Table 8 into the donating chamber and introduce 1 ml of water to dissolve the film. Start the timer for the experiment.
Permeability (P, cm/h), in general within first 8 hours, is defined as the rate of flow of liquid through the membrane.
The similar procedure was performed for the other APIs with a molecule weight ranging from 100 to 6000 g/mol.

Row | Pemeability (cm/h) via PermeaPad Biomimetic Membrane in vitro (HLB9.0) | Compound | Pemeability (cm/h) via PermeaPad Biomimetic Membrane in vitro (HLB15) [cm/h] | Pemeability (cm/h) via PermeaPad Biomimetic Membrane in vitro (no enhancers) | Pemeability (cm/h) via PermeaPad Biomimetic Membrane in vitro (HLB4.3) | Pemeability (cm/h) via PermeaPad Biomimetic Membrane in vitro (HLB9.4) | Pemeability (cm/h) via PermeaPad Biomimetic Membrane in vitro (enhancer condition not stated)
1 | (HLB15), 2.73 (HLB9.0) cm/h | CN1CCc2cccc3c2[C@H]1Cc1ccc(O)c(O)c1-3 [Apomorphine HCL] | 1.87 | 0.413 cm/h |  |  | 
2 |  | NC(=O)c1ccc[n+]([C@@H]2O[C@H](COP(=O)([O-])O)[C@@H](O)[C@H]2O)c1 [Beta-nicotinamide mononucleotide, NMN, Beta-nicotinamide mononucleotide] |  | 0.23 (No enhancers), cm/h | 0.23 (HLB4.3), cm/h | 0.38 (HLB9.4) cm/h | 
3 |  | CC[C@H](C)[C@H](NC(=O)[C@H](CCC(=O)O)NC(=O)[C@H](CCC(=O)O)NC(=O)[C@H](Cc1ccccc1)NC(=O)[C@H](CC(=O)O)NC(=O)CNC(=O)[C@H](CC(N)=O)NC(=O)CNC(=O)CNC(=O)CNC(=O)CNC(=O)[C@@H]1CCCN1C(=O)[C@H](CCCNC(=N)N)NC(=O)[C@@H]1CCCN1C(=O)[C@H](N)Cc1ccccc1)C(=O)N1CCC[C@H]1C(=O)N[C@@H](CCC(=O)O)C(=O)N[C@@H](CCC(=O)O)C(=O)N[C@@H](Cc1ccc(O)cc1)C(=O)N[C@@H](CC(C)C)C(=O)O [Bivalirudin Peptide, Bivalirudin] |  |  |  |  | Un-detectable
4 |  | Cn1c(=O)c2c(ncn2C)n(C)c1=O [Caffeine] | 5.01 | 0.277 cm/h |  | (HLB15), 7.76 (HLB9.4) cm/h | 
5 |  | Insulin |  |  |  |  | Un-detectable
